Counter-ions that a name gives are not always drawn.
Experiment: in vitro
Conditions: rat, gh3-tre-luc cells

SMILES | CC50 at 24 h (AC50 (uM) modified / 1000) | also measured
O=[N+]([O-])c1ccc(CCl)cc1 [4-Nitrobenzyl chloride] |  | CC50 at 24 h (AC50 (uM) modified / 1000, Tox21_110001=Tox21_200572, viability, 1 nM T3 present, 24 h): > 90 µM
O=[N+]([O-])c1ccc(CBr)cc1 [4-Nitrobenzylbromide] | > 100 µM | 
O=C(/C=C/c1ccc([N+](=O)[O-])cc1)c1ccccc1 [4-Nitrochalcone] | > 90 µM | 
O=C(O)CNC(=O)c1ccc([N+](=O)[O-])cc1 [4-Nitrohippuric acid] | > 90 µM | 
O=C1OC(=O)c2cc([N+](=O)[O-])ccc21 [4-Nitrophthalic anhydride] | > 90 µM | 
O=C1NC(=O)c2cc([N+](=O)[O-])ccc21 [4-Nitrophthalimide] | > 90 µM | 
O=[N+]([O-])c1cc[n+]([O-])cc1 [4-Nitropyridine-1-oxide] | > 90 µM | 
O=Nc1ccc(O)cc1 [4-Nitrosophenol] | > 90 µM | 
Cc1ccc([N+](=O)[O-])cc1 [4-Nitrotoluene] |  | CC50 at 24 h (AC50 (uM) modified / 1000, Tox21_110001=Tox21_201464, viability, 1 nM T3 present, 24 h): > 90 µM
CCCCC1CCC(=O)O1 (centres unmarked) [4-Octanolide] | > 90 µM | 
CCCCCCCCOc1ccc(C(=O)O)cc1 [4-Octyloxybenzoic acid] | > 90 µM | 
CC(=O)CCC(=O)O [4-Oxopentanoic acid] | > 100 µM | 
CC1CCC(=O)O1 (centres unmarked) [4-Pentanolide] |  | CC50 at 24 h (AC50 (uM) modified / 1000, Tox21_110001=Tox21_302624, viability, 1 nM T3 present, 24 h): > 90 µM
C=CCCC#N [4-Pentenenitrile] | > 90 µM | 
C=CCCC(=O)O [4-Pentenoic acid] | > 90 µM | 
CCCCCc1ccc(N)cc1 [4-Pentylaniline] | > 90 µM | 
Oc1ccc(Oc2ccccc2)cc1 [4-Phenoxyphenol] | 35.8 µM | 
C1=CCC(c2ccccc2)CC1 (centres unmarked) [4-Phenyl-1-cyclohexene] | > 90 µM | 
Oc1ccc(-c2ccccc2)cc1 [4-Phenylphenol] |  | CC50 at 24 h (AC50 (uM) modified / 1000, Tox21_110001=Tox21_202220, viability, 1 nM T3 present, 24 h): 62.2 µM; CC50 at 24 h (AC50 (uM) modified / 1000, Tox21_110001=Tox21_302734, viability, 1 nM T3 present, 24 h): > 90 µM
Cc1ccc(-c2ccccc2)cc1 [4-Phenyltoluene] | > 90 µM | 
CCCc1ccc(N)cc1 [4-Propylaniline] | > 90 µM | 
CCCc1ccc(OC)cc1 [4-Propylanisole] | > 90 µM | 

SMILES | CC50 at 24 h (AC50 (uM) modified / 1000) | also measured
CCCc1ccc(C(=O)O)cc1 [4-Propylbenzoic acid] | > 50 µM | 
CCCC1CCC(=O)CC1 [4-Propylcyclohexanone] | > 90 µM | 
CCCc1ccc(O)cc1 [4-Propylphenol] | > 90 µM | 
N#Cc1ccncc1 [4-Pyridinecarbonitrile] |  | CC50 at 24 h (AC50 (uM) modified / 1000, Tox21_110001=Tox21_300741, viability, 1 nM T3 present, 24 h): > 100 µM
C(=C\c1ccncc1)/c1ccccc1 [4-Styrylpyridine] | > 50 µM | 
O=C(O)c1ccc(S(=O)(=O)O)cc1C(=O)O [4-Sulfophthalic acid] | > 90 µM | 
N#Cc1cscn1 [4-Thiazolecarbonitrile] | > 90 µM | 
Cc1ccc(S)cc1 [4-Thiocresol] | > 90 µM | 
Cc1ccc(S(N)(=O)=O)cc1 [4-Toluenesulfonamide] | > 90 µM | 
CC(=O)Oc1ccc(C)cc1 [4-Tolyl acetate] | > 90 µM | 
C1CC2OC2CC1C1CO1 (centres unmarked) [4-Vinyl-1-cyclohexene dioxide] |  | CC50 at 24 h (AC50 (uM) modified / 1000, Tox21_110001=Tox21_201505, viability, 1 nM T3 present, 24 h): > 90 µM
C=CC1CC=CCC1 (centres unmarked) [4-Vinylcyclohexene] | > 90 µM | 
C=CC(=O)OCCOC(=O)CCC(=O)O [4-[2-(Acryloyloxy)ethoxy]-4-oxobutanoic acid] | > 90 µM | 
CCCc1c(OCCCOc2ccc(OCC(=O)O)cc2)ccc(C(C)=O)c1O [4-[3-(4-Acetyl-3-hydroxy-2-propylphenoxy)propoxy]phenoxy-acetic acid] | > 90 µM | 
CC(C)(C)c1ccc(N)cc1 [4-tert-Butylaniline] | > 90 µM | 
CC(C)(C)c1ccc(C=O)cc1 [4-tert-Butylbenzaldehyde] | > 90 µM | 
CC(C)(C)c1ccc(S)cc1 [4-tert-Butylbenzenethiol] | > 90 µM | 
CC(C)(C)c1ccc(C(=O)O)cc1 [4-tert-Butylbenzoic acid] | > 90 µM | 
CC(C)(C)C1CCC(O)CC1 (centres unmarked) [4-tert-Butylcyclohexanol] | > 90 µM | 
CC(C)(C)C1CCC(=O)CC1 [4-tert-Butylcyclohexanone] | > 90 µM | 
CC(=O)OC1CCC(C(C)(C)C)CC1 (centres unmarked) [4-tert-Butylcyclohexyl acetate] | > 90 µM | 
CC(C)(C)c1ccc(OC(=O)c2ccccc2O)cc1 [4-tert-Butylphenyl salicylate] | > 90 µM | 

SMILES | CC50 at 24 h (AC50 (uM) modified / 1000) | also measured
C=Cc1ccc(C(C)(C)C)cc1 [4-tert-Butylstyrene] | > 90 µM | 
Cc1ccc(C(C)(C)C)cc1 [4-tert-Butyltoluene] | > 90 µM | 
N#Cc1ccc(CC(=O)c2cccc(C(F)(F)F)c2)cc1 [4-{2-Oxo-2-[3-(trifluoromethyl)phenyl]ethyl}benzonitrile] | > 90 µM | 
c1cc2c3c(c1)ccc1cccc(c13)C2 [4H-Cyclopenta(def)phenanthrene] |  | CC50 at 24 h (AC50 (uM) modified / 1000, Tox21_110001=Tox21_201057, viability, 1 nM T3 present, 24 h): > 90 µM
O=C1OC(=O)c2cc(-c3ccc4c(c3)C(=O)OC4=O)ccc21 [5,5'-Bi-2-benzofuran-1,1',3,3'-tetrone] | > 90 µM | 
O=C1OC(=O)c2cc(Oc3ccc4c(c3)C(=O)OC4=O)ccc21 [5,5'-Oxybis(2-benzofuran-1,3-dione)] | > 90 µM | 
CC1(C)C(=O)NC(=O)NC1=O [5,5-Dimethylbarbituric acid] | > 90 µM | 
CC1(C)NC(=O)NC1=O [5,5-Dimethylhydantoin] | > 90 µM | 
O=C1NC(=O)C(c2ccccc2)(c2ccccc2)N1 [5,5-Diphenylhydantoin] | > 90 µM | 
c1cnc2c(n1)CCCC2 [5,6,7,8-Tetrahydroquinoxaline] | > 90 µM | 
O=c1cc(-c2ccccc2)oc2ccc3ccccc3c12 [5,6-Benzoflavone] | > 90 µM | 
Cc1cc(=O)oc2cc(O)cc(O)c12 [5,7-Dihydroxy-4-methylcoumarin] | > 90 µM | 
COc1cc(OC)c2ccc(=O)oc2c1 [5,7-Dimethoxy-2H-chromen-2-one] | > 90 µM | 
O=c1[nH]nc(-c2ccc([N+](=O)[O-])o2)o1 [5-(5-Nitro-2-furyl)-1,3,4-oxadiazole-2-ol] | 67.5 µM | 
O=Cc1ccc(CO)o1 [5-(Hydroxymethyl)-2-furfural] | > 90 µM | 
O=C(O)c1ccc(CO)o1 [5-(Hydroxymethyl)-2-furoic acid] | > 90 µM | 
O=C(O)CNC(=O)c1ccc(CO)o1 [5-(Hydroxymethyl-2-furoyl)glycine] | > 90 µM | 
O=c1[nH]cnc2[nH]cc(CN3CCCCC3)c12 [5-(Piperidin-1-ylmethyl)-3,7-dihydro-4H-pyrrolo[2,3-d]pyrimidin-4-one] | > 50 µM | 
CC(=O)c1sc(C)nc1C [5-Acetyl-2,4-dimethylthiazole] | > 90 µM | 
Nc1nnc(S)[nH]1 [5-Amino-1,2-dihydro-3H-1,2,4-triazole-3-thione] | > 90 µM | 
Cc1ccc(N)cc1S(=O)(=O)O [5-Amino-2-methylbenzenesulfonic acid] | > 90 µM | 
Cc1ccc(N)cc1O [5-Amino-2-methylphenol] | > 90 µM | 

SMILES | CC50 at 24 h (AC50 (uM) modified / 1000) | also measured
Nc1cc(C(=O)O)c(O)c(S(=O)(=O)O)c1 [5-Amino-3-sulfosalicylic acid] | > 90 µM | 
Nc1ccc(O)c(C(=O)O)c1 [5-Aminosalicylic acid] | > 50 µM | 
O=c1[nH]c(=O)n([C@H]2C[C@H](O)[C@@H](CO)O2)cc1Br [5-Bromo-2'-deoxyuridine] | > 90 µM | 
O=[N+]([O-])C1(Br)COCOC1 [5-Bromo-5-nitro-1,3-dioxane] | 11.8 µM | 
Cc1nc2cc(Cl)ccc2[nH]1 [5-Chloro-2-methyl-1H-benzimidazole] | > 90 µM | 
Cn1sc(Cl)cc1=O [5-Chloro-2-methyl-3(2H)-isothiazolone] | 65.6 µM | 
Cc1ccc(Cl)cc1N [5-Chloro-2-methylaniline] | > 90 µM | 
Clc1ccc2[nH]nnc2c1 [5-Chlorobenzotriazole] | > 90 µM | 
O=C(Nc1ccccc1)c1cc(Cl)ccc1O [5-Chlorosalicylanilide] | 7.85 µM | 
O=C1CCCC=CCCCCCCCCCC1 [5-Cyclohexadecen-1-one] | 74.1 µM | 
CCc1cnc(C(=O)O)c(C(=O)O)c1 [5-Ethyl-2,3-pyridinedicarboxylic acid] | > 100 µM | 
CCC1(C)NC(=O)NC1=O (centres unmarked) [5-Ethyl-5-methylhydantoin] | > 90 µM | 
CC=C1CC2C=CC1C2 (centres unmarked) [5-Ethylidene-2-norbornene] | > 90 µM | 
COC(=O)CCCC(=O)O [5-Methoxy-5-oxopentanoic acid] | > 90 µM | 
COc1ccc2[nH]cc(CCN(C(C)C)C(C)C)c2c1 [5-Methoxy-N,N-diisopropyltryptamine hydrochloride] |  | CC50 at 24 h (AC50 (uM) modified / 1000, Tox21_110001=Tox21_112880, viability, 1 nM T3 present, 24 h): > 100 µM
COc1c2ccoc2cc2oc(=O)ccc12 [5-Methoxypsoralen] | > 90 µM | 
CC(=O)C(=O)CC(C)C [5-Methyl-2,3-hexanedione] | > 90 µM | 
Cc1ccc(C(=O)O)o1 [5-Methyl-2-furancarboxylic acid] | > 90 µM | 
CC(=O)CCC(C)C [5-Methyl-2-hexanone] | > 90 µM | 
Cc1ccc([N+](=O)[O-])c(N)c1 [5-Methyl-2-nitroaniline] | > 90 µM | 
CC(C)C/C=C(/C=O)c1ccccc1 [5-Methyl-2-phenyl-2-hexenal] | 64.6 µM | 
Cc1ccc(C=O)s1 [5-Methyl-2-thiophenecarboxaldehyde] | > 90 µM | 
